The values that follow come from PMC9122944, “Structural insights into the activation of somatostatin receptor 2 by cyclic SST analogues” (Cell Discovery, 2022).

Where two headings read alike, the source gives them in different places.

The subject of one data set is SSTR4. The following applies: SSTR4 (all five SSTRs); cited from earlier work.
For the next data set, the system named is SSTR5. As to conditions: SSTR5 (all five SSTRs); cited from earlier work.
The test system of the next data set is SSTR1. As to conditions: SSTR1 (all five SSTRs); cited from earlier work.
A further data set relates to SSTR2. As to conditions: SSTR2 (all five SSTRs); cited from earlier work.
A further data set has as its system SSTR3. The following applies: SSTR3 (all five SSTRs); cited from earlier work.
The target in another data set is T1, SSTR2 Y302A (Homo sapiens, UniProt P30874, Y302A).
T1 construct: Flag; expressed in transfected cells; host or cells: 293 T cells (pcDNA3.1, co-transfected with Gqi9)
T1 sequence (P30874 whole entry Y302A): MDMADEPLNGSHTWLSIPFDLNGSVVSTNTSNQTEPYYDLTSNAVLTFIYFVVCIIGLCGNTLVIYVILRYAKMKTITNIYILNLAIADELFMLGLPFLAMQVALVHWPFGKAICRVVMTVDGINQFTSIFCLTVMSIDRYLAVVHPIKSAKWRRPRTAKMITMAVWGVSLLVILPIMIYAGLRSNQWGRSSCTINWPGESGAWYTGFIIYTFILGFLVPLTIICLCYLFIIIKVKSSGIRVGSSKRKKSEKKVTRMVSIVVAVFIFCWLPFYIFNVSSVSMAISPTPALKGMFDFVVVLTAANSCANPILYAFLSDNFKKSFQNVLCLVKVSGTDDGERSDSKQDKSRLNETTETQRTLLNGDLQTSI
As to the kind of experiment: Intracellular Ca2+ mobilization signaling assay, SSTR2 Y302A mutant. It counts as cell-based. As to conditions: read-out: Ca2+ Emax. Here is the method: (§1) SSTR2 (wild-type or mutant) and Gqi9 cloned in pcDNA3.1 vector were co-transfected into 293 T cells at a ratio of 2:1 with Lipo3000. After 24 h, the cells were plated in poly-D-lysine-coated 96-well plates. After cells were washed with calcium buffer (HBSS buffer supplemented with 0.1% BSA, 2.5 mM probenecid, pH 7.4), Fluo4 AM was added and incubated for 50 min in a 37 °C incubator. After washing with calcium buffer, 50 μL calcium buffer was added to each well. Fluorescence intensities were recorded simultaneously from all the wells by a FLIPR. Plates were illuminated at 488 nm and fluorescence emission was recorded at 540 nm. The fluorescence intensity was measured at 1-s intervals for 410 s. This procedure was followed by the addition of 50 μL agonist. Data were normalized to the baseline response of the ligand. Data were analyzed using nonlinear regression in GraphPad Prism software 9.0.

The next data set concerns the target T2, SSTR2 D122A (Homo sapiens, UniProt P30874, D122A).
T2 construct: Flag; expressed in transfected cells; host or cells: 293 T cells (pcDNA3.1, co-transfected with Gqi9)
Kind of data set: Intracellular Ca2+ mobilization signaling assay, SSTR2 D122A mutant. The class given is cell-based. The following applies: read-out: Ca2+ Emax. Here is the method: as §1
In general terms: Calcium flux is commonly read through the fluorescence of an indicator in the cells.

The next data set deals with T3, SSTR2-Q126A (Homo sapiens, UniProt P30874, Q126A).
T3 construct: Flag; expressed in transfected cells; host or cells: 293 T cells (pcDNA3.1, co-transfected with Gqi9)
T3 sequence (P30874 whole entry Q126A): as the sequence (P30874 whole entry Y302A) above, with Q126A, A302Y counted along it
As to the kind of experiment: Intracellular Ca2+ mobilization signaling assay, SSTR2 Q126A mutant. The class given is cell-based. The following applies: read-out: Ca2+ Emax. Here is the method: as §1

A further data set concerns the target T4, SSTR2 F208A (Homo sapiens, UniProt P30874, F208A).
T4 construct: Flag; expressed in transfected cells; host or cells: 293 T cells (pcDNA3.1, co-transfected with Gqi9)
Kind of data set: Intracellular Ca2+ mobilization signaling assay, SSTR2 F208A mutant. It counts as cell-based. As to conditions: read-out: Ca2+ Emax. Here is the method:
as §1

The next data set has as its target T5, SSTR2 N276A (Homo sapiens, UniProt P30874, N276A).
T5 construct: Flag; expressed in transfected cells; host or cells: 293 T cells (pcDNA3.1, co-transfected with Gqi9)
Kind of data set: Intracellular Ca2+ mobilization signaling assay, SSTR2 N276A mutant. The class given is cell-based. As to conditions: read-out: Ca2+ Emax. Here is the method:
as §1

Another data set concerns the target T6, SSTR2(1-359)-Largebit (Homo sapiens, UniProt P30874).
T6 construct: SSTR2(1-359)-; Flag; expressed in transfected cells; host or cells: 293 T cells (pcDNA3.1, co-transfected with Gqi9)
As to the kind of experiment: Intracellular Ca2+ mobilization signaling assay, SSTR2(1-359)-Largebit construct. It counts as cell-based. As to conditions: maximal response as percentage of wild-type SSTR2 response. Here is the method:
as §1

Another data set concerns the target T7, SSTR2-Q102S (Homo sapiens, UniProt P30874, Q102S).
T7 construct: Flag; expressed in transfected cells; host or cells: 293 T cells (pcDNA3.1, co-transfected with Gqi9)
Kind of data set: Intracellular Ca2+ mobilization signaling assay, SSTR2 Q102S mutant. It counts as cell-based. The following applies: for Emax: read-out: Ca2+ Emax. Here is the method: as §1

For another data set, the target named is T8, SSTR2 Q102A (Homo sapiens, UniProt P30874, Q102A).
T8 construct: Flag; expressed in transfected cells; host or cells: 293 T cells (pcDNA3.1, co-transfected with Gqi9)
T8 sequence (P30874 whole entry Q102A): as the sequence (P30874 whole entry Y302A) above, with Q102A, A302Y counted along it
Kind of data set: Intracellular Ca2+ mobilization signaling assay, SSTR2 Q102A mutant. The following applies: for Emax: read-out: Ca2+ Emax. It counts as cell-based. Here is the method: as §1

The conditions of data set [1]: cited from earlier work.
The target of data set [2] is wild-type SSTR2 (pcDNA3.1, functional assays) (human) (UniProt P30874).
Chain of wild-type SSTR2 (pcDNA3.1, functional assays) (human) (P30874 whole entry): as the sequence (P30874 whole entry Y302A) above, with A302Y counted along it
A further data set concerns the target SSTR2-Q126A (human) (UniProt P30874).
The target in data set [3] is SSTR2-Q102^2.63 substituted with alanine (human) (UniProt P30874).
Chain of SSTR2-Q102^2.63 substituted with alanine (human) (P30874 whole entry Q102A): as the sequence (P30874 whole entry Y302A) above, with Q102A, A302Y counted along it
The target of the next data set is T9, SSTR2 F294S (Homo sapiens, UniProt P30874, F294S).
T9 construct: Flag; expressed in transfected cells; host or cells: 293 T cells (pcDNA3.1, co-transfected with Gqi9)
T9 sequence (P30874 whole entry F294S): as the sequence (P30874 whole entry Y302A) above, with F294S, A302Y counted along it
As to the kind of experiment: Intracellular Ca2+ mobilization signaling assay, SSTR2 F294S mutant. The class given is cell-based. The following applies: read-out: Ca2+ Emax. Here is the method:
as §1

The target in the next data set is T10, SSTR2 F272A (Homo sapiens, UniProt P30874, F272A).
T10 construct: Flag; expressed in transfected cells; host or cells: 293 T cells (pcDNA3.1, co-transfected with Gqi9)
T10 sequence (P30874 whole entry F272A): as the sequence (P30874 whole entry Y302A) above, with F272A, A302Y counted along it
Kind of data set: Intracellular Ca2+ mobilization signaling assay, SSTR2 F272A mutant. The following applies: percentage of wild-type SSTR2 response. It counts as cell-based. Here is the method: as §1

Another data set concerns the target T11, SSTR2 (wild-type) (Homo sapiens, UniProt P30874).
T11 construct: Flag; expressed in transfected cells; host or cells: 293 T cells (pcDNA3.1, co-transfected with Gqi9)
As to the kind of experiment: Intracellular Ca2+ mobilization signaling assay, wild-type SSTR2. The class given is cell-based. Here is the method:
as §1

T7 sequence (P30874 whole entry Q102S): as the sequence (P30874 whole entry Y302A) above, with Q102S, A302Y counted along it
T4 sequence (P30874 whole entry F208A): as the sequence (P30874 whole entry Y302A) above, with F208A, A302Y counted along it
T2 sequence (P30874 whole entry D122A): as the sequence (P30874 whole entry Y302A) above, with D122A, A302Y counted along it
T5 sequence (P30874 whole entry N276A): as the sequence (P30874 whole entry Y302A) above, with N276A, A302Y counted along it
Chain of SSTR2-Q126A (human) (P30874 whole entry Q126A): as the sequence (P30874 whole entry Y302A) above, with Q126A, A302Y counted along it
T11 sequence (P30874 whole entry): as the sequence (P30874 whole entry Y302A) above, with A302Y counted along it
T6 sequence (P30874 1-359): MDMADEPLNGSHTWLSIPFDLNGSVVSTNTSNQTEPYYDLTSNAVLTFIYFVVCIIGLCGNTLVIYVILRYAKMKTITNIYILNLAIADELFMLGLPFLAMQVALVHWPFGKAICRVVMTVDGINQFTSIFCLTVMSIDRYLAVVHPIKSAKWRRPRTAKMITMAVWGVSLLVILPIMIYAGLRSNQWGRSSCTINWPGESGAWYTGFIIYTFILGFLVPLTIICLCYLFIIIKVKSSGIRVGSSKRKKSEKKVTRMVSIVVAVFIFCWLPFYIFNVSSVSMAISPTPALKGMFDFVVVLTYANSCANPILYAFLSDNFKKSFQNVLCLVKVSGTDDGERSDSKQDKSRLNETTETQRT

As to `C[C@H](N)C(=O)NCC(=O)N[C@H]1CSSC[C@@H](C(=O)O)NC(=O)[C@H](CO)NC(=O)[C@H]([C@@H](C)O)NC(=O)[C@H](Cc2ccccc2)NC(=O)[C@H]([C@@H](C)O)NC(=O)[C@H](CCCCN)NC(=O)[C@H](Cc2c[nH]c3ccccc23)NC(=O)[C@H](Cc2ccccc2)NC(=O)[C@H](Cc2ccccc2)NC(=O)[C@H](CC(N)=O)NC(=O)[C@H](CCCCN)NC1=O` [SST14], the binding affinity entry with SSTR4, in the data set on SSTR5, in the data set on SSTR1, with SSTR2 and in the data set on SSTR3 was “high binding affinity” in each case.

Usually Emax stands for the size of the effect at its maximum, as opposed to the concentration needed. For orientation: half-life means how long it takes for the measured level to halve. For the molecule `C[C@@H](O)[C@@H]1NC(=O)[C@H](CCCCN)NC(=O)[C@@H](Cc2c[nH]c3ccccc23)NC(=O)[C@H](Cc2ccccc2)NC(=O)[C@@H](NC(=O)[C@H](N)Cc2ccccc2)CSSC[C@@H](C(=O)N[C@H](CO)[C@@H](C)O)NC1=O` [Octreotide], the Emax was determined as 13.7 ± 3.2% on SSTR2 Y302A (Y302A mutant, percentage of wild-type SSTR2 response); 5.6 ± 0.5% at SSTR2 D122A (D122A mutant, percentage of wild-type SSTR2 response); 83.5 ± 5.9% at SSTR2-Q126A (Q126A mutant, percentage of wild-type SSTR2 response); 98.7 ± 6.9% at SSTR2 F208A (F208A mutant, percentage of wild-type SSTR2 response); 22.3 ± 5.4% at SSTR2 N276A (N276A mutant, percentage of wild-type SSTR2 response); 82.6 ± 7.4% at SSTR2(1-359)-Largebit. Moreover, the maximum response (Emax) is 91.9 ± 6.5% at SSTR2-Q102S (Q102S mutant, percentage of wild-type SSTR2 response) and 104 ± 12.1% on SSTR2 Q102A (Q102A mutant, percentage of wild-type SSTR2 response). The half-life in [1] was 2 h.

For the molecule octreotide (peptide), the EC50 of Ca^2+ mobilization (293 T cells with Gqi9) in data set [2] is 0.02 µM; with SSTR2-Q126A (human), 0.1 µM; in [3] it was 1.3 µM.

By EC50 is commonly meant the midpoint of the concentration-response curve. Low readings indicate a more potent agent, high ones a less potent agent. In the case of `CC(C)[C@@H]1NC(=O)[C@H](CCCCN)NC(=O)[C@@H](Cc2c[nH]c3ccccc23)NC(=O)[C@H](Cc2ccc(O)cc2)NC(=O)[C@@H](NC(=O)[C@H](N)Cc2ccc3ccccc3c2)CSSC[C@@H](C(=O)N[C@H](C(N)=O)[C@@H](C)O)NC1=O` [Lanreotide], the Emax on SSTR2 Y302A came to 14 ± 2.2%; at SSTR2 D122A, 11.7 ± 4.3%; at SSTR2 F294S it was 11.4 ± 0.8%; on SSTR2 F272A, 12.4 ± 1.1%; at SSTR2-Q126A, 25.2 ± 1.8%; at SSTR2 F208A it was 27.9 ± 4%. The Emax on SSTR2 N276A turned out to be 13.8 ± 1.6%; on SSTR2-Q102S, 54.8 ± 1.6%; on SSTR2 Q102A, 56.1 ± 4.2%. Moreover, the figures for the EC50 at SSTR2 (wild-type), on SSTR2-Q102S and on SSTR2 Q102A were 0.0501 µM, 0.501 µM and 0.398 µM, respectively. Also, at SSTR2-Q102S (SSTR2-Q102S versus wild-type SSTR2), the “Effect of mutation on EC50” value is recorded as “highly attenuated EC50”. In [1], the half-life is 1 h.
